Assay [1] relates to ATPTR2Ap. The experiment in a line: Uptake of L-leucyl-L-[3H]leucine and competition, PB1X-9B[pPTF4]. The note with it: PB1X-9B[pPTF4], pH 5.5, dileucine and leucine at 100-fold. As to the method: The kinetics of ATPTR2A-mediated transport of peptides in yeast was evaluated by transforming pPTF4 into the S. cerevisiae peptide transport mutant, PB1X-9B and measuring the uptake of tritiated Leu-Leu dipeptide.
(§1) L-leucyl-L [^3 H]leucine trifluoroacetic acid (TFA) was synthesized by standard solution phase techniques (Naider, F. et al., J. Biol. Chem. 249:9-20 (1974)). Uptake of L-leucyl-L-[H]leucine was performed as by Island, M. D. et al (J. Bacteriol. 169:2132-2136 (1987)), with the following modifications. Cells were grown to late log phase (26×10^7 cells/ml) overnight in SC with 2% glucose, 1 mg/ml allantoin plus amino acids to supplement auxotrophic markers. To induce peptide transport. 5-15 ml from this culture was added to 100 ml fresh medium such that the density was 3.0×10^6 cells/ml. This culture was allowed to grow (approx. 2 hrs.) to a density of 6.0×10^6 cells/ml and then harvested by centrifugation. The pelleted cells were washed twice with 10 ml cold dH2 O and suspended in cold 2% glucose to a final concentration of 2×10^8 cells/ml and incubated at 30° C. for 15 min. 500 μl of cells were then added to an equal volume of reaction mixture (30° C.) and incubated at 30°-C. At 20, 40, 60, 90, and 120 sec. intervals, 190 μl portions were removed, filtered over filters (pore size, 0.45 μm; GN-6; Gelman Sciences, Inc., Ann Arbor, Mich.) and washed 2 times with 5 ml cold, sterile dH2 O and once with 5 ml dH2 O at room temperatures. Filters were placed in scintillation vials with 5 ml of Budget-Solve scintillation cocktail (Research Products International Corp., Mount Prospect, Ill.) and counted (liquid scintillation counter; LS-7000; Beckman Instruments, Inc., Fullerton, Calif.). The final concentration of the components in the uptake assay was 1% glucose, 40 mM sodium citrate-potassium phosphate buffer (pH 5.5), and 1.5×105 M L-leucyl-L-[^3 H]leucine (specific activity, 10 mCi/mmole). Uptake is expressed as nanomoles per mg dry weight.

For assay [2], the system named is A. thaliana seedlings. Description: Root assay, toxic peptide plus competitor peptide. The assay is classed as in vivo, Arabidopsis thaliana. As to the method:
Approximately 15 A. thaliana seeds were placed in a row at one end of 10 cm plate containing 20 ml of Arabidopsis growth media (Kranz and Kirchheim 1987). The seeds were incubated 3-5 days in the light with the plate set in an upright position. When the roots were approximately 1-2 cm long, sterile paper filter disks were placed immediately in front of the root tips on the right and left side of the plate 2 cm from the edge of the plate. A line was drawn across the plate using the top of the disks as a guide marking zero growth. 5 μl of toxic amino acid analog, toxic peptide, or toxic peptide plus competitor was added to one disk while H2 O was place on the other disk. The plates were incubated for an additional 3-5 days. The average length of the roots was measured from the line and the results expressed as a percentage of control root growth.

The target in assay [3] is T1, yeast peptide transport system (Saccharomyces cerevisiae, UniProt P32901).
T1 construct: The ptr2 gene encodes a 602 amino acid hydrophobic polypeptide with 12 putative hydrophobic segments; expressed in transfected cells; host or cells: S. cerevisiae peptide transport mutant PB1X-9B (ptr2-2) transformed with pJP9
T1 sequence (P32901 1-601): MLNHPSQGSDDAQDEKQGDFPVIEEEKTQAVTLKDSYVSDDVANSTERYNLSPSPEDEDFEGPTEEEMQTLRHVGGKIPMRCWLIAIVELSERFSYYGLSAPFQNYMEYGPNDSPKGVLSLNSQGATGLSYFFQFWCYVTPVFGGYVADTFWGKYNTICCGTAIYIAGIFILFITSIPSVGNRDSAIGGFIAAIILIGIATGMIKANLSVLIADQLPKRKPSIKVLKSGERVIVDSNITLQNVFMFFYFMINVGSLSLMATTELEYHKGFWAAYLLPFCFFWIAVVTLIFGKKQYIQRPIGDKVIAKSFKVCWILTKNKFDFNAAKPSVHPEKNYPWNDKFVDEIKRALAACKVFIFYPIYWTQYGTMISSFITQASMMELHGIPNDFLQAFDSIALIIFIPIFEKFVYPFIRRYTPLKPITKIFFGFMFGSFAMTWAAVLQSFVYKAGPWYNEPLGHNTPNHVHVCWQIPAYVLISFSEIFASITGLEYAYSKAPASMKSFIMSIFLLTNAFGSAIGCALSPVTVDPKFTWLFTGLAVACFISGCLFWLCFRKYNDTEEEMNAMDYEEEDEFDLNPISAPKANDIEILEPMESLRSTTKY
Description: Competition for L-leucyl-L-[3H]leucine uptake, PB1X-9B[pJP9]. The assay is classed as cell-based. The note with it: pH 5.5. As to the method: as §1

In assay [4] the test system is PB1X-9B (pJP9). The experiment in a line: Toxic peptide disk assay, mutant with yeast peptide transport gene. The assay is classed as cell-based, Saccharomyces cerevisiae. As to conditions: disk with 0.38 μmoles, lawn of 5×10^6 cells, 30° C., 1 to 2 days, mean ± standard error. As to the method: (§2) Since ptr mutants are deficient in peptide transport, they are unable to take up toxic peptides. This inability renders such mutants resistant to the toxic effect of the peptides. In order to determine whether the polynucleotides of the present invention could restore toxic peptide sensitivity to ptr2 mutants, the sensitivity of plasmid-transformed cells was determined. Sensitivity to toxic amino acids and peptides was measured as described by Island, M. D. et al. (J. Bacteriol. 169:2132-2136 (1987)). Briefly, a filter disk containing 0.38 μmoles of the toxic compound was placed on a lawn containing 5×10^6 cells and the plate incubated at 30° C. for 1 to 2 days. Resulting halos were measured across their diameter. The toxic dipeptides Leu-Eth, Ala-Eth, Leu-F-Phe and Oxalysine were synthesized by standard solution phase techniques (Naider, F. et al., J. Biol. Chem. 249:9-20 (1974). The results of this experiment are shown in Table 2 (values are the mean of the diameters of the observed zone of inhibition in millimeters±standard error of the mean of at least two independent experiments).

In assay [5] the test system is S288C. The experiment in a line: Toxic peptide disk assay, wild type. The assay is classed as cell-based, Saccharomyces cerevisiae. As to conditions: disk with 0.38 μmoles, lawn of 5×10^6 cells, 30° C., 1 to 2 days, mean ± standard error. On the procedure: as §2
Assay [6] concerns A. thaliana seeds. The experiment in a line: Seed germination with toxic peptides (minimum inhibitory concentration). The assay is classed as in vivo, Arabidopsis thaliana. The note with it: seeds exposed to the toxic compound. On the procedure:
Thus, A. thaliana seeds and seedlings were exposed to Ethionine, Ala-Eth, Leu-Eth, Leu-fluorophenylalanine or oxalysine containing peptides, and the minimum inhibitory concentrations (MIC) were determined for each of the toxic compounds.
To measure the minimum inhibitory concentration of the toxic peptides, 10 to 15 A. thaliara seeds were place on solid Arabidopsis growth media with decreasing concentrations of toxic peptide. The seeds were incubated for 4 days in the dark and then scored for germination.

Assay [7] deals with PB1X-9B. The experiment in a line: Toxic peptide disk assay, peptide transport mutant. The assay is classed as cell-based, Saccharomyces cerevisiae. On the procedure: as §2
Assay [8] concerns PB1X-9B (pPTF4). The experiment in a line: Toxic peptide disk assay, mutant with plant gene ATPTR2A. In kind it is cell-based, Saccharomyces cerevisiae. On the procedure:
as §2

Assay [9] deals with S. cerevisiae strains tested. Description: Toxic peptide disk assay, statements covering several strains. In kind it is cell-based, Saccharomyces cerevisiae. The note with it: wild type (S288C) and transformants. On the procedure:
as §2

In assay [10] the test system is PB1X-9B (pJP9). The experiment in a line: Growth on peptides, mutant transformed with yeast peptide transport gene. In kind it is cell-based, Saccharomyces cerevisiae. As to the method: (§3) In addition, untransformed PB1X-9B, PB1X-9B transformed with plasmid pJP9 encoding the above-described yeast peptide transport gene, PB1X-2AΔ and PB1X-2A, the ptr2^+ parental strain to PB1X-2AΔ strain, were also assayed. Each strain was grown overnight in SC media plus uracil (non-transformed) or minus uracil (transformed) plus amino acids to stationary phase and harvested by centrifugation. Cells were then washed twice with sterile dH2 O and resuspended at 5×10^6 cells/ml. 5 μl of each suspension was applied as a small spot to a 2 ml volume of solid media in a 24 well plate. All peptides were suspended in sterile, deionized water and added to an equal volume of SC medium plus the appropriate amino acids and uracil when required. The medium for each assay thus consisted of SC medium plus or minus uracil supplemented with 80 μM of a specific peptide and auxotrophic requirements minus the amino acid components of the added peptide. The plates were incubated at 30° C. for 72 hrs. and then scored for growth.

Assay [11] relates to PB1X-2AΔ (pDTF1). Description: Growth on peptides, deletion strain transformed with ATPTR2B. The assay is classed as cell-based, Saccharomyces cerevisiae. Further details: key: +: Growth was scored as uniform colony formation; -: negative controls which showed no growth. The note with it: PBIX-2AΔ (pDTF1); 80 μM peptide in SC medium, 30° C., 72 hrs. As to the method:
as §3, with “Thus, the peptide transport mutant PB1X-9B and deletion strain PB1X-2AΔ transformed with plasmids pPTF4 (ATPTR2A) or pDTF1 (ATPTR2B) were grown on various peptides to assess the specificity of the plant peptide transporter. In” for “In”

The subject of assay [12] is PB1X-9B (pPTF4). The experiment in a line: Growth on peptides, mutant transformed with plant gene ATPTR2A. The assay is classed as cell-based, Saccharomyces cerevisiae. The note with it: PBIX-9B (pPTF4); 80 μM peptide in SC medium, 30° C., 72 hrs. On the procedure:
as §3

The test system of assay [13] is PB1X-9B. Description: Growth on peptides as amino acid source, peptide transport mutant. The assay is classed as cell-based, Saccharomyces cerevisiae. As to conditions: PBIX-9B; 80 μM peptide in SC medium, 30° C., 72 hrs. As to the method: as §3
The mark [14] stands for this setting: disk with 0.38 μmoles, lawn of 5×10^6 cells, 30° C., 1 to 2 days, mean ± standard error.

As for `NCC(=O)CCC(=O)O` [ALA, γ-aminolevulinic acid], the “competition for uptake of [3H]-dileucine” value was “lack of inhibition” in assay [1], “did not compete” in assay [1] (listed as γ-aminolevulinic acid) and “able to compete” in assay [3]. In addition, the “reversal of toxicity by competitor (in words)” value in assay [2] (toxic peptide Ala-Eth) and in assay [2] (toxic peptide Leu-Eth) was “unable to reverse the inhibition” throughout. The “root growth with toxic peptide plus competitor” value in [2] (toxic peptide Ala-Eth) and in assay [2] (toxic peptide Leu-Eth) was 0 percentage of control root gro each time.
With `CCSCC[C@H](N)C(=O)O` [Eth, ethionine], the “diameter of zone of inhibition” value in assay [4] turned out to be 46.5 ± 1.5 millimeters; in assay [5], 39.0 ± 3.0 millimeters; in assay [7] (setting [14]), 44.5 ± 3.5 millimeters; in assay [8] (setting [14]), 46.5 ± 0.5 millimeters. The “root length at which growth was arrested” value in [6] is recorded as 1-2 mm. For the same compound, the “sensitivity or resistance to toxic compound” value in assay [7] and in assay [8] was “sensitive” each time. Moreover, the “sensitivity to toxic compound” value in [9] was “most sensitive”.
Turning to `NCCOC[C@H](N)C(=O)O` [Oxa-Lys, oxalysine], the “root length at which growth was arrested” value in assay [6] is reported as 1-2 mm.
For tetra-Lys: SEQ ID NO:5 (KKKK), the “growth on peptide (in words)” value in [10] (PB1X-9B transformed with pJP9) is recorded as “showed growth on all peptides except”. Moreover, the growth on peptide entry in assay [10] (PBIX-9B (pJP9), 80 μM peptide in SC medium, 30° C., 72 hrs) was “-”; in assay [11], “-”; in assay [12], “-”; in assay [13], “-”.
Consider tri-Ala: competitor tripeptide, for which the “competition for uptake of [3H]-dileucine” value in assay [1] and in assay [3] was “uptake competition similar to that seen for Leu-Leu” throughout. Further, the “reversal of toxicity by competitor (in words)” value in assay [2] (toxic peptide Ala-Eth) and in assay [2] (toxic peptide Leu-Eth) was “unable to reverse the inhibition” in each case. The “root growth with toxic peptide plus competitor” value in [2] (toxic peptide Ala-Eth) was 0 percentage of control root gro.

The values above are taken from patent publication US6080542A, “Plant peptide transport gene” (priority 1997, dated 2000).
